Assay results: patent US20220193042A1, “NITAZOXANIDE AND THIAZOLIDES FOR USE IN THE TREATMENT OF DISEASES ASSOCIATED WITH OXIDATIVE STRESS” (GENFIT, priority 2019, published 2022)

Tests used:
Hep G2 cells = assay: Intracellular GSH detection (ThiolTracker Violet) in menadione-stressed Hep G2 cells; format: cell-based, human; details: 1 μM TZ preincubated 1 hour, then 100 μM menadione for 2 hours
Protocol: Tizoxanide (Interchim; cat #RP253) was dissolved in DMF (Sigma; cat #227056). Menadione (Sigma; cat #M2518) and N-Acetylcysteine were dissolved (Sigma; cat #A9165) in water. Hep G2 cells (ECACC) were plated at a density of 20 000 cells par well into a 96-well microplate in 100 μl of DMEM (Gibco; cat #41965-039) supplemented with 1% P/S (Gibco; cat #15140-122), 1% glutamine(Gibco; cat #25030-024).The complete medium contained 10% SVF (Gibco; cat #10270-106). The next day, culture medium was removed and replaced by 100 μL of DMEM (Gibco; cat #31053-028) without Red Phenol and SVF but supplemented with 1% P/S (Gibco; cat #15140-122), 1% glutamine(Gibco; cat #25030-024). The serum deprived HepG2 were preincubated for 1 hour with TZ or N-Acetylcysteine (NAC) then exposed to Menadione (MND) for 2 hours. Compounds were dissolved in their respective vehicles a mentioned above and diluted in the deprived culture medium. […] The cellular level of reduced glutathione was subsequently monitored using the ThiolTracker Violet dye (Invitrogen, cat #T10096). Briefly, cells were washed two times with DPBS (Invitrogen, Cat #14287-080) then incubated for 30 min at 37° with 100 μl of prewarmed ThiolTracker Violet dye solution prepared in DPBS according the supplier 's instructions and fluorescence was measured (Ex:404 nm, Em: 526 nm)

Nrf2-ARE signaling = assay: ARE Reporter - HepG2 cell line luciferase assay; format: cell-based, human; details: 1 μM TZ, 18 h exposure, vs vehicle
Protocol: ARE Reporter—Hep G2 cells(BPS Bioscience, Inc., San Diego cat #60513) were cultured following manufacturer's instructions. After thawing (BPS thaw medium 1, cat #60187), cells were cultured in growth-medium (BPS growth medium 1K, cat #79533) and subsequently plated at a density of 40 000 cells par well in a 96-well microplate in 45 μl of assay medium (BPS thaw medium). TZ (Interchim; cat #RP253) & DL-Sulforaphane (Sigma; cat #S4441) were dissolved in DMSO and diluted into assay medium. 5 μl of 10× dilution were added on cells to reach a final concentration of 1 μM and 3 μM for TZ and DL-Sulforaphane (DL-Sulfo) respectively. After 18 h exposure, luciferase activity was determined. 50 μl of One-Step Luciferase assay system (BPS cat #60690) were added per well and after −15 min of rocking at room temperature, luminescence was measured using a luminometer.

Nrf2 target genes = assay: Enrichment of Nrf2 target genes in hepatic transcriptome (RNAseq), CDAA/c NASH model; format: in vivo, C57Bl/6J mice; details: NTZ+CDAA/c vs CDAA/c; Nrf2 target genes are 1.3% of whole identified transcriptome
Protocol: In the current study, the preventive effects of NTZ 100 mg/kg/day were assessed in a murine model. 6 week-old male C57Bl/6J mice were fed a control (CSAA) diet (n=8), CDAA+1% cholesterol diet (n=12), or CDAA+1% cholesterol diet supplemented with NTZ 100 mg/kg/day (n=8) for 12 weeks. The food was purchased from Ssniff® company (Soest, Germany). Nitazoxanide (Interchim, Ref #RQ550) was incorporated by Ssniff® into CDAA+1% chol diet in powder form to the required dose.
The body weight and the food intake were monitored twice per week. On the last day of treatment, mice were sacrificed after a 6 h fasting period. The liver was rapidly excised for transcriptomic and histological studies.
Upon measurement of RNA samples concentration by nanodrop, the quality was assessed using bioanalyser. […]
Reads were cleaned using Trimmomatic v.0.36 with the following parameters: SLIDINGWINDOW:5:20 LEADING:30 TRAILING:30 MINLEN:60.Then reads were aligned on the genome reference (Mus musculus GRCm38.90) with rnacocktail using hisat2 v.2.1.0 as aligner with default parameters. […]
To identify differentially expressed genes (DE genes), we used R (version 3.4.3) and the DESEa2 library (v. 1.18.1). […] Briefly, the count matrix produced by FeatureCounts was analyzed by the DESeqDataSetFromMatrixO function followed by the DEseq( ) function from the DESeq2 library. […]

SMILES | prevention of MND-induced reduction of cellular GSH (Hep G2 cells) | ARE-mediated luciferase activity (ARE-mediated transcription) (Nrf2-ARE signaling) | proportion of Nrf2-regulated genes among all differentially expressed genes (Nrf2 target genes)
O=C(Nc1ncc([N+](=O)[O-])s1)c1ccccc1O [TZ, Tizoxanide] | totally prevented | significant increase | –
CC(=O)Oc1ccccc1C(=O)Nc1ncc([N+](=O)[O-])s1 [NTZ, [2-[(5-nitro-1,3-thiazol-2-yl)carbamoyl]phenyl]ethanoate] | – | – | more than 8%
